We go through one compound from US20160051560A1, “TREATMENTS INVOLVING ESLICARBAZEPINE OR ESLICARBAZEPINE ACETATE” (BIAL - PORTELA & Cª, S.A., priority 2013, published 2016).

For data set [1] the following is noted: leading to a better tolerability profile; cited from earlier work.
The subject of data set [2] is patients with acute manic (including mixed) episode, bipolar I disorder. Put plainly: Study BIA-2093-203: 3-week double-blind, randomised, placebo-controlled, dose-titration study in acute mania. Format: in vivo, human. Particulars: for YMRS score absolute change from V2 (1 Day) to V7 (21 Days), Mean ± SD / YMRS score absolute change from V2 (1 Day) to V7 (21 Days), Median (range): ITT. As for the experimental part: Two 3-week multicentre, double-blind, randomised, placebo-controlled studies in acute mania (study BIA-2093-203: dose titrated by response, eslicarbazepine acetate (ESL) 600-1800 mg or 800-2400 mg, once-daily; study BIA-2093-204: fixed doses of 600, 1200 and 1800 mg, once-daily) were followed by a recurrence prevention study consisting of a 2-week open-label period (900 mg, once-daily) continued by a double-blind, parallel-group, fixed dose (300, 900 and 1800 mg, once-daily) period for a minimum of 6 months. The primary endpoint was change in Young Mania Rating Scale (YMRS) in studies BIA-2093-203 and BIA-2093-204, and the proportion of no worsening patients in the Clinical Global Impressions-Bipolar Version (CGI-BP) in study BIA-2093-205.
Study BIA-2093-203 (EudraCT No 2005-002131-27) followed a multicentre, double-blind, randomised, parallel-group, placebo-controlled, dose-titration design.
This study was conducted at 23 centres across Europe. Patients were randomised (3:3:2) to one of the following treatment groups: (1) ESL starting with 800 mg once daily (QD) and up-titrated in 800 mg steps until 2400 mg QD (maximum dose) according to clinical response, (2) ESL starting with 600 mg QD and up-titrated in 600 mg steps until 1800 mg QD (maximum dose) according to clinical response, and (3) Placebo QD. Patients were followed for up to 3 weeks. The study schedule consisted of a screening visit (V1), randomisation visit (V2, Day 1), and subsequent visits to evaluate clinical response (V3, Day 4; V4, Day 7; V5, Day 10; V6, Day 14 and V7, Day 21). In patients showing no improvement of symptoms, the dose of study medication was increased every 3 days until the maximum doses were reached. […] At the end of the 3-week treatment period, patients who responded to treatment had the option of entering the recurrence prevention study (Study BIA-2093-205).
Studies BIA-2093-203 and BIA-2093-204 enrolled patients with ages ≧18 years, currently displaying an acute manic (including mixed) episode and with a documented diagnosis of bipolar I disorder according to the DSM-IV criteria (2). Eligible patients should have a Young Mania Rating Scale (YMRS) total score ≧20, with symptoms of the current manic episode starting within two weeks prior to randomization. Patients were excluded if they had history of schizophrenia or schizoaffective disorder, psychotic features or rapid cycling. Patients were also excluded if they were treated with carbamazepine, oxcarbazepine or a depot-neuroleptic. Previous treatment with ESL or history of unresponsiveness, intolerance or hypersensitivity to other dibenzazepine compounds (carbamazepine, oxcarbazepine or licarbazepine) also constituted criteria for exclusion. Patients with clinical relevant risk of harm to self or others and history of substance abuse were also excluded. Women were excluded if they were pregnant or breast-feeding, or if of childbearing potential they were unable to use double-barrier contraception.
The following validated instruments were used: YMRS (20), the Clinical Global Impressions-Bipolar Version (CGI-BP) scale (21) and the Montgomery-Åsberg Depression Rating Scale (MADRS) (22). The YMRS score is the sum of 11 scoring items, ranging from 0 to 60 points; higher scores indicate higher mania symptomatology (20). The CGI-BP scale measures severity and treatment-related improvement in mania, depression and overall illness categories. It comprises 3 scales: severity of illness (1—normal to 7—very severely ill, in which 3—mildly ill was used as cut-off value for statistical analysis), change from preceding phase and worst phase (1—very much improved to 7—very much worse, and 8—not applicable) (21). The MADRS score is calculated as the sum of the 10 scoring items, ranging from 0 to 60 points: higher scores indicate higher depression symptomatology (22). […]

Setting [3] is: ESL 600 mg (600-1800 mg QD titrated), n = 63.
[4] abbreviates: ESL 800 mg (800-2400 mg QD titrated), n = 57.
[5] abbreviates: ESL 800 mg, n = 57, only study 203.

For `CC(=O)O[C@H]1Cc2ccccc2N(C(N)=O)c2ccccc21` [ESL, (S)-10-acetoxy-10,11-dihydro-5H-dibenz[b,f]azepine-5-carboxamide], in data set [1], the “production of toxic metabolites compared to carbamazepine” value was “reduced production of toxic metabolites”. Also, in data set [2] (ANCOVA showed no significant difference between the treatment groups at visit 7), the “MADRS scores under treatment with ESL as compared to placebo” value is on record as “apparent improvement”. For the same compound, in data set [2] (ESL 600 mg), the “absolute difference between ESL treatment group and placebo for the YMRS total score” value is listed as 2.2. For the same compound, in data set [2] (setting [3]), the “YMRS score absolute change from V2 (1 Day) to V7 (21 Days), Mean ± SD” value is given as −12.2 ± 7.9 and the “YMRS score absolute change from V2 (1 Day) to V7 (21 Days), Median (range)” value is −14.0 (−25.0, 14.0). In data set [2] (ESL 600 mg group, from worst phase only), the “CGI-BP score changes for mania and overall bipolar illness compared to placebo” value is listed as “significant improvement”. In addition, the “absolute difference between ESL treatment group and placebo for the YMRS total score” value in data set [2] (ESL 800 mg) is 4.0. In data set [2] (setting [4]), the “YMRS score absolute change from V2 (1 Day) to V7 (21 Days), Mean ± SD” value was −14.1 ± 8.9 and the “YMRS score absolute change from V2 (1 Day) to V7 (21 Days), Median (range)” value is on record as −16.0 (−33.0, 22.0). Further, the “CGI-BP score changes for mania and overall bipolar illness compared to placebo” value in data set [2] (ESL 800 mg group, from preceding and worst phase) is recorded as “significant improvement”. In addition, the “proportion of patients in V7 classified as normal (CGI-BP severity of illness scale) vs placebo” value in data set [2] (ESL 800 mg group, mania and overall bipolar illness) is on record as “significant differences”. Also, in data set [2] (setting [5]), the “Any Adverse Events” value is listed as 29 (50.9) Number (%) of patients, the Diarrhoea is reported as 2 (3.5) Number (%) of patients, the Dizziness is reported as 5 (8.8) Number (%) of patients and the Headache is recorded as 5 (8.8) Number (%) of patients. Further, in data set [2] (setting [5]), the Nausea is listed as 4 (7.0) Number (%) of patients, the Paraesthesia oral is 0 (0.0) Number (%) of patients, the Somnolence was 1 (1.8) Number (%) of patients and the Vomiting is 2 (3.5) Number (%) of patients. The “reduction in YMRS total score as compared with placebo, statistical significance” value in data set [2] (ESL 600-1800 mg and ESL 800-2400 mg groups) is on record as “None of the treatment groups showed a reduction in YMRS total score as compared with placebo that was statistically significant”. Besides, in data set [2] (ESL 800-2400 mg group), the “proportion of patients in full remission (YMRS score <12) at V7 compared to the placebo group” value is on record as “significantly higher proportion of patients were in full remission” and the “response rate (≧50% improvement or <12 points in the YMRS score)” value is reported as 66.7%. In addition, the “reduction in YMRS total score” value in data set [2] (ESL 800-2400 mg vs placebo −10.3 (p=0.0523)) is given as −14.2.
